The record followed here is PubChem BioAssay (NCI).

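A five-concentration, 48-hour dose response in 96-well plates underlies each endpoint, interpolated linearly between surrounding concentrations. TGI is the concentration that stops growth completely.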 A value given as a limit tells only on which side of the number the result lay.

One experiment concerns A498 renal. Briefly: growth of human tumour cells (NCI), 48 h.
In turn, `COCc1nc(N)nc(N2N=C(C)CC2(C)C)n1` yielded a TGI of more than 100 µM.
`Cc1ccccc1-n1c(=O)c2ncn(C3CCCO3)c2n(-c2ccccc2C)c1=S` (stereo not given) displayed a TGI of more than 100 µM.
Same read-out and setting: the figure for `CC1(/C=C/CCSc2ccccc2)CC(=O)C2CC1C2(C)C` (stereo not given) is more than 88.3 µM.
On the same count and under the same terms, the figure for `C/C(=N\Nc1ccc([N+](=O)[O-])cc1[N+](=O)[O-])c1sc(-n2nc(-c3ccccc3)cc2-c2ccccc2)nc1C` is 92.3 µM; for `CS(=O)(=O)OCC1CN(S(C)(=O)=O)c2cc(O)ccc21` (stereo not given) it is 7.81 µM; for `O=c1[nH]cc(-c2c[nH]c3ccccc23)nc1-c1c[nH]c2ccccc12` it is 27.9 µM.
On the same count and under the same terms, with `CC(=O)Nc1ccc(C(O)/C(=N/N)c2nc3ccc(Cl)cc3[nH]c2=O)cc1` (stereo not given) the figure was more than 100 µM; with `Nc1n[n+](CC(=O)c2ccccc2)c2sc(-c3ccccc3)nn12`, more than 100 µM.
`CC1=NN(C(=O)c2ccncc2)C(=O)C1` yielded a TGI of more than 100 µM.
Same read-out and setting: the figure for `CCN1C(=O)c2cc(OC)c(OC)cc2C(=O)C12OC(=O)c1cc3c(cc12)OCO3` (stereo not given) is more than 100 µM.
On the same count and under the same terms, with `O=C1CCCN1C(=O)CS(=O)(=O)c1ccccc1` the figure was more than 100 µM; with `Cc1cc(C)c(-n2[nH]c(=O)n(C)c2=O)c(C)c1`, more than 100 µM.
On the same count and under the same terms, the figure for `CC1=NC(=Cc2cccc(Cl)c2)C(=O)N1n1c(-c2ccccc2)nc2ccccc2c1=O` is 83.1 µM; for `CO/C(=N\N=C\c1ccc(OC)c(OC)c1)c1ccncc1` it is more than 10 µM.
Turning to `COC1=CC(=O)C2=C(C1=O)[C@H]1CC[C@]3(C)[C@@H](O)CC[C@H]3[C@@H]1CC2`, the TGI is more than 100 µM.
The same measure, in the same setting: with `CCC(CCCN)Nc1cc(OC)cc2c(C)ccnc12` (stereo not given) the figure was 34 µM; with `CC(C)(C)OC(=O)N/N=C(/N)Cc1ccc(Cl)cc1`, more than 100 µM.

The next experiment deals with ACHN renal. Briefly: growth of human tumour cells (NCI), 48 h.
For the molecule `COCc1nc(N)nc(N2N=C(C)CC2(C)C)n1`, the TGI is more than 100 µM.
Same read-out and setting: the figure for `Cc1ccccc1-n1c(=O)c2ncn(C3CCCO3)c2n(-c2ccccc2C)c1=S` (stereo not given) is more than 100 µM; for `CC1(/C=C/CCSc2ccccc2)CC(=O)C2CC1C2(C)C` (stereo not given) it is 77.8 µM; for `C/C(=N\Nc1ccc([N+](=O)[O-])cc1[N+](=O)[O-])c1sc(-n2nc(-c3ccccc3)cc2-c2ccccc2)nc1C` it is more than 100 µM.
Same read-out and setting: with `CS(=O)(=O)OCC1CN(S(C)(=O)=O)c2cc(O)ccc21` (stereo not given) the figure was 15.1 µM; with `O=c1[nH]cc(-c2c[nH]c3ccccc23)nc1-c1c[nH]c2ccccc12`, 25 µM.
Still for that read-out and setting: the figure for `CC(=O)Nc1ccc(C(O)/C(=N/N)c2nc3ccc(Cl)cc3[nH]c2=O)cc1` (stereo not given) is more than 100 µM.
For the molecule `Nc1n[n+](CC(=O)c2ccccc2)c2sc(-c3ccccc3)nn12`, the TGI is more than 100 µM.
As to `CC1=NN(C(=O)c2ccncc2)C(=O)C1`, the TGI was more than 100 µM.
`CCN1C(=O)c2cc(OC)c(OC)cc2C(=O)C12OC(=O)c1cc3c(cc12)OCO3` (stereo not given) gave a TGI of more than 100 µM.
On the same count and under the same terms, the figure for `O=C1CCCN1C(=O)CS(=O)(=O)c1ccccc1` is more than 100 µM; for `CC1=NC(=Cc2cccc(Cl)c2)C(=O)N1n1c(-c2ccccc2)nc2ccccc2c1=O` it is 52.7 µM; for `COC1=CC(=O)C2=C(C1=O)[C@H]1CC[C@]3(C)[C@@H](O)CC[C@H]3[C@@H]1CC2` it is 31.9 µM.
Regarding `CCC(CCCN)Nc1cc(OC)cc2c(C)ccnc12` (stereo not given), the TGI is 32.6 µM.
On the same count and under the same terms, the figure for `CC(C)(C)OC(=O)N/N=C(/N)Cc1ccc(Cl)cc1` is more than 100 µM.

Another experiment deals with BT-549 breast. Briefly: growth of human tumour cells (NCI), 48 h.
As for `COCc1nc(N)nc(N2N=C(C)CC2(C)C)n1`, the TGI is more than 100 µM.
In turn, `Cc1ccccc1-n1c(=O)c2ncn(C3CCCO3)c2n(-c2ccccc2C)c1=S` (stereo not given) displayed a TGI of more than 100 µM.
On the same count and under the same terms, the figure for `CC1(/C=C/CCSc2ccccc2)CC(=O)C2CC1C2(C)C` (stereo not given) is 42.1 µM; for `C/C(=N\Nc1ccc([N+](=O)[O-])cc1[N+](=O)[O-])c1sc(-n2nc(-c3ccccc3)cc2-c2ccccc2)nc1C` it is more than 100 µM; for `CS(=O)(=O)OCC1CN(S(C)(=O)=O)c2cc(O)ccc21` (stereo not given) it is 8.85 µM.
`O=c1[nH]cc(-c2c[nH]c3ccccc23)nc1-c1c[nH]c2ccccc12` returned a TGI of 28.7 µM.
Molecule `CC(=O)Nc1ccc(C(O)/C(=N/N)c2nc3ccc(Cl)cc3[nH]c2=O)cc1` (stereo not given) had a TGI of more than 100 µM.
Still for that read-out and setting: the figure for `Nc1n[n+](CC(=O)c2ccccc2)c2sc(-c3ccccc3)nn12` is more than 100 µM; for `CC1=NN(C(=O)c2ccncc2)C(=O)C1` it is more than 100 µM.
On the same count and under the same terms, with `CCN1C(=O)c2cc(OC)c(OC)cc2C(=O)C12OC(=O)c1cc3c(cc12)OCO3` (stereo not given) the figure was more than 100 µM; with `O=C1CCCN1C(=O)CS(=O)(=O)c1ccccc1`, more than 100 µM.
Still for that read-out and setting: the figure for `Cc1cc(C)c(-n2[nH]c(=O)n(C)c2=O)c(C)c1` is more than 100 µM.
The molecule `CC1=NC(=Cc2cccc(Cl)c2)C(=O)N1n1c(-c2ccccc2)nc2ccccc2c1=O` had a TGI of more than 100 µM.
On the same count and under the same terms, the figure for `CO/C(=N\N=C\c1ccc(OC)c(OC)c1)c1ccncc1` is more than 10 µM; for `COC1=CC(=O)C2=C(C1=O)[C@H]1CC[C@]3(C)[C@@H](O)CC[C@H]3[C@@H]1CC2` it is 31.8 µM; for `CCC(CCCN)Nc1cc(OC)cc2c(C)ccnc12` (stereo not given) it is 28.5 µM.
In the case of `CC(C)(C)OC(=O)N/N=C(/N)Cc1ccc(Cl)cc1`, the TGI was more than 100 µM.

The subject of another experiment is DU-145 prostate. The experiment can be described thus: growth of human tumour cells (NCI), 48 h.
With `COCc1nc(N)nc(N2N=C(C)CC2(C)C)n1`, the TGI was more than 100 µM.
`Cc1ccccc1-n1c(=O)c2ncn(C3CCCO3)c2n(-c2ccccc2C)c1=S` (stereo not given) gave a TGI of more than 100 µM.
The molecule `CC1(/C=C/CCSc2ccccc2)CC(=O)C2CC1C2(C)C` (stereo not given) came in with a TGI of more than 100 µM.
Still for that read-out and setting: the figure for `C/C(=N\Nc1ccc([N+](=O)[O-])cc1[N+](=O)[O-])c1sc(-n2nc(-c3ccccc3)cc2-c2ccccc2)nc1C` is more than 100 µM; for `CS(=O)(=O)OCC1CN(S(C)(=O)=O)c2cc(O)ccc21` (stereo not given) it is 10 µM.
In the case of `O=c1[nH]cc(-c2c[nH]c3ccccc23)nc1-c1c[nH]c2ccccc12`, the TGI stood at 28.1 µM.
The same measure, in the same setting: with `CC(=O)Nc1ccc(C(O)/C(=N/N)c2nc3ccc(Cl)cc3[nH]c2=O)cc1` (stereo not given) the figure was more than 100 µM; with `Nc1n[n+](CC(=O)c2ccccc2)c2sc(-c3ccccc3)nn12`, more than 100 µM.
For `CC1=NN(C(=O)c2ccncc2)C(=O)C1`, the TGI was more than 100 µM.
Molecule `CCN1C(=O)c2cc(OC)c(OC)cc2C(=O)C12OC(=O)c1cc3c(cc12)OCO3` (stereo not given) came in with a TGI of 88.4 µM.
As to `O=C1CCCN1C(=O)CS(=O)(=O)c1ccccc1`, the TGI is more than 100 µM.
Molecule `Cc1cc(C)c(-n2[nH]c(=O)n(C)c2=O)c(C)c1` yielded a TGI of more than 100 µM.
On the same count and under the same terms, the figure for `CC1=NC(=Cc2cccc(Cl)c2)C(=O)N1n1c(-c2ccccc2)nc2ccccc2c1=O` is more than 100 µM; for `CO/C(=N\N=C\c1ccc(OC)c(OC)c1)c1ccncc1` it is more than 10 µM; for `COC1=CC(=O)C2=C(C1=O)[C@H]1CC[C@]3(C)[C@@H](O)CC[C@H]3[C@@H]1CC2` it is 31 µM.
Consider `CCC(CCCN)Nc1cc(OC)cc2c(C)ccnc12` (stereo not given), for which the TGI is 35.5 µM.
